According to article PMC10614203, “Synthesis, Structure–Activity Relationships, Radiofluorination, and Biological Evaluation of [^18F]RM365, a Novel Radioligand for Imaging the Human Cannabinoid Receptor Type 2 (CB2R) in the Brain with PET” (Journal of Medicinal Chemistry, 2023):
“And” between values parts separate entries of the source, which are not always exact repeats. Identical values can stand only once. “Also recorded” adds a separate entry of the source. Like-named read-outs stand apart in the source and are kept apart here.

Tests used:
hCB2R = target: T1, hCB2R (Homo sapiens, UniProt P34972); experiment: Competitive radioligand binding assay, displacement of [3H]WIN55212-2 from homogenates of hCB2R-CHO cells; conditions: for Ki: read-out: CB2R Ki; for CB2R binding affinity, in words: hCB2R, discussion of Table 1
T1 construct: host or cells: CHO cells, stably transfected
Description: (§1) The binding affinity of the herein described compounds toward the human CB2R was determined by a competitive radioligand binding assay according to the established in-house protocol using cell homogenates obtained from CHO cells stably transfected with hCB2R (hCB2R-CHO).[53],[73] For compounds binding with high affinity to hCB2R, the affinity toward CB1R was determined as well by radioligand displacement studies performed either with homogenates obtained from the mouse brain or hCB1R-CHO cells.
(§2) The binding affinities toward hCB1R and hCB2R were determined according to a previously published protocol.[22] In brief, membrane preparations obtained from CHO cell lines stably transfected with either human CB1R (hCB1R-CHO; obtained from Euroscreen, Gosselies, Belgium) or human CB2R (hCB2R-CHO; obtained from Paul L. Prather, Department of Pharmacology and Toxicology, College of Medicine, University of Arkansas for Medical Sciences, USA) were incubated with [^3H]SR141716A (1,554 GBq/mmol; PerkinElmer Life and Analytical Sciences, Rodgau, Germany; final concentration ∼2 nM) or [^3H]WIN55212-2 (6,438 GBq/mmol; PerkinElmer Life and Analytical Sciences, Rodgau, Germany; final concentration ∼3 nM) and the respective test compounds at different concentrations (final concentration 10^–5–10^–11 M) diluted from DMSO stock solutions (1% DMSO final concentration) in incubation buffer (50 mM TRIS-HCl, pH 7.4, supplemented with 0.1% bovine serum albumin, 5 mM MgCl2, and 1 mM EDTA) at rt for 90 min.
(§3) The nonspecific binding of the respective radioligand was determined by coincubation with CP55,940 (final concentration 10^–5 M). The normalized values of bound activity (% specific binding) were calculated and plotted vs the logarithm of the concentration of the respective test compound. The IC50 values of the resulting inhibition curves were estimated by nonlinear regression analysis (GraphPad Prism 2.01). To calculate the Ki, the equation of Cheng and Prusoff was used. For homologous competition experiments, Ki = KD.[38]

hCB1R = target: T2, hCB1R (Homo sapiens, UniProt P21554); experiment: Radioligand displacement assay, [3H]SR141716A from homogenates of hCB1R-CHO cells; assay type: binding
T2 construct: host or cells: CHO cells, stably transfected
Description: as §1, §2, §3

CB2R = conditions: cited from earlier work
hCB2R(D80N) = target: T3, hCB2R(D80N) (Homo sapiens, UniProt P34972, D80N); design: method as in earlier work; conditions: same animal model, previously evaluated; ref 83 ([18F]LU14), 31 ([18F]LU13); cited from earlier work
T3 construct: expressed in transfected cells; host or cells: neurons of the right striatum of male Wistar rats, transduced in vivo with the AAV2/7-CaMKII0.4-intron-hCB2R(D80N) vector

[1] = hCB2R-CHO homogenates, displacement of [3H]WIN55.2212-2
[2] = hCB1R-CHO homogenates, displacement of [3H]SR141716A, read-out: CB1R Ki
[3] = Figure 1, ref 28 (DM102), 29, 30 (RoSMA-18-d6), 31 (LU13), 33 (LUZ5-d8)
[4] = Figure 1, ref 28 (DM102), 29, 30 (RoSMA-18-d6), 31 (LU13), 33 (LUZ5-d8), read-out: KiCB2R
[5] = enantiomer obtained by chiral HPLC separation (Scheme 1), hCB2R-CHO, [3H]WIN55.2212-2

T2 sequence (P21554 whole entry): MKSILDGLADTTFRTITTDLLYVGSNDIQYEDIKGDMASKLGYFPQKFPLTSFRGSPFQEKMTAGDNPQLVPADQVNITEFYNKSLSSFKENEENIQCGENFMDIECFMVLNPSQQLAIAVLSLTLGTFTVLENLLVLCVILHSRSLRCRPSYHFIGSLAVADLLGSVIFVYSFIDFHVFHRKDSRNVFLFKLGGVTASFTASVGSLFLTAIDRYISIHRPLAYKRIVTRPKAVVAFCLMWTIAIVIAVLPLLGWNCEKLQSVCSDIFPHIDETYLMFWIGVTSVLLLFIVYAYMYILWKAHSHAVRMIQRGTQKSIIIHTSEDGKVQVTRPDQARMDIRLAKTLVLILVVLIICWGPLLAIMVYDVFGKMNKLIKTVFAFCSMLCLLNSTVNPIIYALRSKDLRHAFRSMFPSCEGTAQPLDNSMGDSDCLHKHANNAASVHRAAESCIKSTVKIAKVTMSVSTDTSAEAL
T1 sequence (P34972 whole entry): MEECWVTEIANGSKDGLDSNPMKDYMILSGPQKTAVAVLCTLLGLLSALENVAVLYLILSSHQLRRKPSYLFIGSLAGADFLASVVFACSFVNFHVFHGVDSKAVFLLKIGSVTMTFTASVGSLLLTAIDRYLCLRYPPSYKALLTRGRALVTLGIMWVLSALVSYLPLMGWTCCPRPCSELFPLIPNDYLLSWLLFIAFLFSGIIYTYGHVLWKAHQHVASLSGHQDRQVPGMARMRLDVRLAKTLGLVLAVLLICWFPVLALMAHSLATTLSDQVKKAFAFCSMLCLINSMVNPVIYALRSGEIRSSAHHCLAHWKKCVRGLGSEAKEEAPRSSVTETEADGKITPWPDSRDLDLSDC
T3 sequence (P34972 whole entry D80N): as the sequence (P34972 whole entry) above, with D80N counted along it

| Compound | Ki (hCB2R; [1]) [nM] | Ki (hCB1R; [2]) [nM] | CB2R binding affinity, in words (hCB2R) | further results |
| --- | --- | --- | --- | --- |
| CC1(C)Cc2ccc(C#N)cc2[C@@H]1NC(=O)c1cc2c(F)cccc2[nH]1 [Compound 19A, (R)-N-(6-Cyano-2,2-dimethyl-2,3-dihydro-1H-inden-1-yl)-4-fluoro-1H-indole-2-carboxamide] | 3.41 | > 1000 |  |  |
| CC1(C)C(C(=O)c2cn(CCC[18F])c3ccccc23)C1(C)C [[^18F]DM102] |  |  |  | KiCB1R/KiCB2R (CB2R; [3]): 440; Ki (CB2R; [4]): 7.8 nM |
| CC1(C)Cc2ccc(C#N)cc2[C@@H]1NC(=O)c1cc2cc(OCCCF)ccc2[nH]1 [Compound 19E, (R)-N-(6-Cyano-2,2-dimethyl-2,3-dihydro-1H-inden-1-yl)-5-(3-fluoropropoxy)-1H-indole-2-carboxamide] | 15.6 ± 3.85 | > 100 | slightly decreased the affinity | Ki (hCB1R; supplement, formula strings sheet, read-out: CB1RKi): > 1000 nM |
| CC1(C)Cc2ccc(C#N)cc2[C@@H]1NC(=O)c1nc2cc(F)ccc2[nH]1 [Compound 19G, (R)-N-(6-Cyano-2,2-dimethyl-2,3-dihydro-1H-inden-1-yl)-5-fluoro-1H-benzo[d]imidazole-2-carboxamide] | 7.18 | > 100 | high CB2R affinity |  |
| CC1(C)Cc2ccc(C#N)cc2[C@@H]1NC(=O)c1cc2cc(F)ccc2s1 [Compound 19H, (R)-N-(6-Cyano-2,2-dimethyl-2,3-dihydro-1H-inden-1-yl)-5-fluorobenzo[b]thiophene-2-carboxamide] | 6.98 ± 3.43 | > 100 | high CB2R affinity |  |
| [2H]C([2H])([18F])C([2H])([2H])C([2H])([2H])OC(=O)C(CC)(CC)NC(=O)c1ccc(N2CC(OC)C2)c(OC[C@H]2C[C@@H]2CO)n1 [[^18F]RoSMA-18-d6] |  |  |  | KiCB1R/KiCB2R (CB2R; [3]): > 10000; Ki (CB2R; [4]): 0.8 nM |
| CC1(C)Cc2ccc(C#N)cc2[C@@H]1NC(=O)c1cc2cc(F)ccc2[nH]1 [Compound (–)-6, (R)-N-(6-Cyano-2,2-dimethyl-2,3-dihydro-1H-inden-1-yl)-5-fluoro-1H-indole-2-carboxamide] |  |  | binding affinity in the same range | selectivity over CB1R (factor) (hCB2R; CB2R over CB1R): > 300; Ki (hCB2R; compound obtained by enantioselective synthesis (Scheme 2), hCB2R-CHO, [3H]WIN55.2212-2): 3.53 nM; Ki (hCB2R; [5]): 2.1 nM and 2.19 nM; Ki (hCB1R; compound obtained by enantioselective synthesis (Scheme 2), hCB1R-CHO, [3H]SR141716A, read-out: CB1R Ki): 965 nM; Ki (hCB1R; enantiomer obtained by chiral HPLC separation (Scheme 1), hCB1R-CHO, [3H]SR141716A, read-out: CB1R Ki): 827 nM; Ki (CB2R; reported value, read-out: CB2R Ki): 0.24 nM |
| [2H]C([2H])([18F])C([2H])([2H])C([2H])([2H])C([2H])([2H])n1c(=O)c(C(=O)NC23CC4CC(CC(C4)C2)C3)cc2cccnc21 [[^18F]LU13] |  |  |  | TAC peak SUV in target region (hCB2R(D80N)): 3.6; KiCB1R/KiCB2R (CB2R; [3]): > 1000; Ki (CB2R; [4]): 0.6 nM |
| Cc1c(C(=O)N[C@H]2c3cc(C#N)ccc3CC2(C)C)[nH]c2ccc(F)cc12 [Compound 19F, (R)-N-(6-Cyano-2,2-dimethyl-2,3-dihydro-1H-inden-1-yl)-5-fluoro-3-methyl-1H-indole-2-carboxamide] | 336 | > 100 | deleterious effect on the binding affinity |  |
| O=C(NC12CC3CC(CC(C3)C1)C2)c1cc2cc(F)ccc2[nH]1 [Compound 21E, N-(Adamantan-1-yl)-5-fluoro-1H-indole-2-carboxamide] | > 1000 | > 1000 | loss of CB2R binding |  |
| CC1(C)Cc2ccc(C#N)cc2[C@@H]1NC(=O)c1cc2ccc(F)cc2[nH]1 [Compound 19B, (R)-N-(6-Cyano-2,2-dimethyl-2,3-dihydro-1H-inden-1-yl)-6-fluoro-1H-indole-2-carboxamide] | 15.9 | > 1000 |  |  |
| CC12CCC(C1)C(C)(C)C2NC(=O)c1cc2cc(F)ccc2[nH]1 (stereo not shown) [Compound 21D] | > 1000 | > 1000 | loss of CB2R binding |  |
| CC1(C)Cc2ccc(C#N)cc2[C@@H]1NC(=O)c1cc2cc(OCCF)ccc2[nH]1 [Compound 19D, (R)-N-(6-Cyano-2,2-dimethyl-2,3-dihydro-1H-inden-1-yl)-5-(2-fluoroethoxy)-1H-indole-2-carboxamide] | 29.9 ± 3.39 | > 1000 | slightly decreased the affinity |  |
| CC1(C)Cc2ccc(OCCCF)cc2[C@@H]1NC(=O)c1cc2cc(F)ccc2[nH]1 [Compound 21B, (R)-5-Fluoro-N-(6-(3-fluoropropoxy)-2,2-dimethyl-2,3-dihydro-1H-inden-1-yl)-1H-indole-2-carboxamide] | 78.1 | > 1000 | slightly reduced affinity |  |
| CC1(C)Cc2ccc(C#N)cc2C1NC(=O)c1cc2cc(F)ccc2[nH]1 (racemic) [Compound (±)-6, (rac)-N-(6-Cyano-2,2-dimethyl-2,3-dihydro-1H-inden-1-yl)-5-fluoro-1H-indole-2-carboxamide] | 3 | 842 |  |  |
| CC1(C)Cc2ccc(C#N)cc2C1NC(=O)c1cc2cc(F)ccc2[nH]1 (stereo not drawn) [Compound (+)-6] |  | > 1000 | inactive; also recorded: no binding | Ki (hCB2R; [5]): > 1000 nM |
| CC1(C)Cc2ccc(C(N)=O)cc2[C@@H]1NC(=O)c1cc2cc(F)ccc2[nH]1 [Compound 21C, (R)-N-(6-Carbamoyl-2,2-dimethyl-2,3-dihydro-1H-inden-1-yl)-5-fluoro-1H-indole-2-carboxamide] | > 1000 | > 1000 |  |  |
| (R)-N-(6-Cyano-2,2-dimethyl-2,3-dihydro-1H-inden-1-yl)-6-fluoro-1H-indole-2-carboxamide [Compound 19C] | 6.49 | > 1000 |  |  |
| CC1(C)Cc2ccc(OCCF)cc2[C@@H]1NC(=O)c1cc2cc(F)ccc2[nH]1 [Compound 21A, (R)-5-Fluoro-N-(6-(2-fluoroethoxy)-2,2-dimethyl-2,3-dihydro-1H-inden-1-yl)-1H-indole-2-carboxamide] | 50 | > 100 | slightly reduced affinity |  |
